# Reference: patent publication US20040260071A1, “Benzophene-linked crf and crf-like peptides for covalent labeling of corticotropin-releasing factor crf binding protein” (priority 2001, published 2004)
# Where “and” joins values, the source holds several entries; their conditions need not be identical. Identical values can stand only once. Non-standard residues stand in square brackets, D forms with d. Residues, ends and D or L forms follow the SMILES beside them. No end group written: not given here. *: point of attachment. Benzoyl(4-benzoyl) = O=C(c1ccccc1)c1ccc(C(=O)*)cc1; Bpa = N[C@@H](Cc1ccc(C(=O)c2ccccc2)cc1)C(=O)O
# How the values were obtained:
# rCRFBP [1] = biological target: T1, rCRFBP (Rattus norvegicus, UniProt P24388); assay: Radioligand binding assay (charcoal precipitation, 3H-rUcn) for affinity to rCRFBP; conditions: for Ki: mean ± S.E.M. of three independent experiments in duplicate, 3H-rUcn radioligand, Cheng-Prusoff, read-out: Inhibition constants (Kl)
# T1 construct: made in house; host or cells: HEK 293 cells, stably transfected (pcDNA3); serum-free conditioned medium used directly
# T1 sequence (P24388 25-322): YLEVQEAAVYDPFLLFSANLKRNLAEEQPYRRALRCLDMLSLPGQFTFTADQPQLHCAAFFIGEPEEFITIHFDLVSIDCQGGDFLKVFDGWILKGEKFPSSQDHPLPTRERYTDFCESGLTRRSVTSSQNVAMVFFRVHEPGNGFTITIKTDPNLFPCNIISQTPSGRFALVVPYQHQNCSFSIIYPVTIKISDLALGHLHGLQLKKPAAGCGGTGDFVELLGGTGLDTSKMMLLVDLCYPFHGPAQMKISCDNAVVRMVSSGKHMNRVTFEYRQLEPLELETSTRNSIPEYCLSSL
# Experimental: The peptides were tested for their affinity to rCRFBP on the basis of a charcoal precipitation assay utilizing tritiated Ucn as radioligand (21). […] Siliconized microreaction vials (Sigma, Deisenhofen, Germany) were used to prevent binding of peptides to plastic surfaces. Competition binding experiments were performed by employing 0 to maximally 3 μM unlabeled competitor. The applied concentration range depended on the expected order of magnitude of ligand affinity. After 2 hours of incubation at room temperature, unbound ligand was precipitated by the addition of 100 μl precipitation buffer (binding buffer+10% w/v activated charcoal+2% BSA). The suspension was mixed vigorously and the adsorption was allowed to proceed for 2 min at room temperature. After centrifugation for 2 min at 12000×g, 200 μl supernatant was removed, mixed with 2 ml Ecolume liquid scintillation cocktail (ICN Biomedicals, Irvine, Calif.), and counted for 3 min in a Wallac 1209 Rackbeta liquid scintillation counter (Wallac, Turku, Finland). All assays were performed in duplicate and repeated at least three times. Binding data were analyzed using the Prism computer program (GraphPad Software, San Diego, Calif.).
# rCRFBP [2] = biological target: T1, rCRFBP; assay: Photoaffinity labeling of rCRFBP (photoadduct formation); type: biochemical; conditions: for Photoadduct yield determined by immunoblotting: comparison of photoprobes (FIG. 6)
# Experimental: 1 nM CRFBP was incubated with a 100 fold molar excess of photoactivatable ligand for 1 hour at room temperature. […] The irradiation was carried out with UV-light of wavelenghts greater than 300 nm in an ice bath.
# rCRFBP (approximate final concentration 10 nM) was incubated with 100 nM of the photoactivatable peptide according to the conditions of the radioligand binding assay. Medium from stably transfected HEK 293 cells was directly used as source for rCRFBP. Irradiation of the benzophenone photoprobes was carried out at 0° C. with a self-constructed photoreaction device incorporating a 400 W halogen metal vapor lamp (Ultratech, Osram, Germany). This lamp provides a wide spectrum of emission at wavelenghts above 250 nm with a maximum at 370 nm which is consistent with the activation wavelenght (350-360 nm) for benzophenone derivatives (13). Protein-damaging wavelenghts below 300 nm were avoided by the use of a filter screen consisting of the optical glass type B 270 (Schoft, Mainz, Germany). The aryldiazirine photoprobe was irradiated as described (14) using a commercially available stratalinker device.
# Unless otherwise stated, activation was carried out for 30 min at 0° C. with an Ultratech 400 W halogen metal vapor lamp (Osram). Protein-damaging wavelenghts below 300 nm were filtered with a B270 glass screen (Schott). Unlabeled rCRFBP and the photoadduct were co-purified by adsorption to a nickel-chelate matrix under denaturing conditions. The eluted fraction was analyzed by SDS PAGE (45) (9% polyacrylamide gels) and by reversed-phase HPLC coupled on-line to mass spectrometry (HPLC-MS) on a Vydac C4 column (0.3×150 mm; LC Packings).
# rCRFBP [3] = biological target: T1, rCRFBP; assay: Scintillation proximity assay with [125I-Tyr0]h/rCRF as radioligand, binding to rCRFBP; conditions: Example 8; 95% CI given alongside; read-out: IC50 (affinity to rCRFBP)
# Excerpt: Recombinant rCRFBP containing a C-terminal His-tag was produced in human embryonic kidney (HEK) 293 cells under serum-free conditions (45).
# [4] = photoprobes 100 nM, competitor 1 μM (FIG. 12a)
# [5] = photoprobe pBB-rUcn, competitor in ten-fold excess (FIG. 5)
compound,measurement,setting,value
"CC[C@H](C)[C@H](NC(=O)[C@H](CO)NC(=O)[C@H](CC(C)C)NC(=O)[C@@H]1CCCN1C(=O)[C@@H]1CCCN1C(=O)[C@H](CC(=O)O)NC(=O)[C@H](CC(=O)O)NC(=O)c1ccc(C(=O)c2ccccc2)cc1)C(=O)N[C@@H](CC(=O)O)C(=O)N[C@@H](CC(C)C)C(=O)N[C@H](C(=O)N[C@@H](Cc1ccccc1)C(=O)N[C@@H](Cc1c[nH]cn1)C(=O)N[C@@H](CC(C)C)C(=O)N[C@@H](CC(C)C)C(=O)N[C@@H](CCCNC(=N)N)C(=O)N[C@H](C(=O)N[C@@H](CC(C)C)C(=O)N[C@@H](CC(C)C)C(=O)N[C@@H](CCC(=O)O)C(=O)N[C@@H](CC(C)C)C(=O)N[C@@H](C)C(=O)N[C@@H](CCCNC(=N)N)C(=O)N[C@H](C(=O)N[C@@H](CCC(N)=O)C(=O)N[C@@H](CO)C(=O)N[C@@H](CCC(N)=O)C(=O)N[C@@H](CCCNC(=N)N)C(=O)N[C@@H](CCC(=O)O)C(=O)N[C@@H](CCCNC(=N)N)C(=O)N[C@@H](C)C(=O)N[C@@H](CCC(=O)O)C(=O)N[C@@H](CCC(N)=O)C(=O)N[C@@H](CC(N)=O)C(=O)N[C@@H](CCCNC(=N)N)C(=O)N[C@H](C(=O)N[C@H](C(=O)N[C@@H](Cc1ccccc1)C(=O)N[C@@H](CC(=O)O)C(=O)N[C@@H](CO)C(=O)N[C@H](C(N)=O)C(C)C)[C@@H](C)CC)[C@@H](C)CC)[C@@H](C)O)[C@@H](C)O)[C@@H](C)O [Compound 2, pBB-rUcn]",Ki,rCRFBP [1],< 1 nM and 0.99 nM
same,Photoadduct yield by integration of the UV trace,rCRFBP [2]; HPLC of affinity purified photoreaction products (FIG. 8),60%
same,Maximal photoadduct yield,"rCRFBP [2]; Western blot densitometry, 30 min irradiation with B 270 filter screen (FIG. 4C)",up to 50%
same,Photoadduct yield determined by immunoblotting,rCRFBP [2],50%
same,Photoadduct yield by SDS PAGE silver staining,"rCRFBP [2]; preparative scale, nickel-affinity purified (FIG. 7)",50%
"CC[C@H](C)[C@H](NC(=O)[C@H](CO)NC(=O)[C@H](CC(C)C)NC(=O)[C@@H]1CCCN1C(=O)[C@@H]1CCCN1C(=O)[C@H](CC(=O)O)NC(=O)[C@@H](N)CC(=O)O)C(=O)N[C@@H](CC(=O)O)C(=O)N[C@@H](CC(C)C)C(=O)N[C@H](C(=O)N[C@@H](Cc1ccc(C(=O)c2ccccc2)cc1)C(=O)N[C@@H](Cc1c[nH]cn1)C(=O)N[C@@H](CC(C)C)C(=O)N[C@@H](CC(C)C)C(=O)N[C@@H](CCCNC(=N)N)C(=O)N[C@H](C(=O)N[C@@H](CC(C)C)C(=O)N[C@@H](CC(C)C)C(=O)N[C@@H](CCC(=O)O)C(=O)N[C@@H](CC(C)C)C(=O)N[C@@H](C)C(=O)N[C@@H](CCCNC(=N)N)C(=O)N[C@H](C(=O)N[C@@H](CCC(N)=O)C(=O)N[C@@H](CO)C(=O)N[C@@H](CCC(N)=O)C(=O)N[C@@H](CCCNC(=N)N)C(=O)N[C@@H](CCC(=O)O)C(=O)N[C@@H](CCCNC(=N)N)C(=O)N[C@@H](C)C(=O)N[C@@H](CCC(=O)O)C(=O)N[C@@H](CCC(N)=O)C(=O)N[C@@H](CC(N)=O)C(=O)N[C@@H](CCCNC(=N)N)C(=O)N[C@H](C(=O)N[C@H](C(=O)N[C@@H](Cc1ccccc1)C(=O)N[C@@H](CC(=O)O)C(=O)N[C@@H](CO)C(=O)N[C@H](C(N)=O)C(C)C)[C@@H](C)CC)[C@@H](C)CC)[C@@H](C)O)[C@@H](C)O)[C@@H](C)O [Compound 6, pBF^11-rUcn] (H-DDPPLSIDLT[Bpa]HLLRTLLELARTQSQRERAEQNRIIFDSV-NH2; N-terminus assumed)",Ki,rCRFBP [1],400 ± 35 nM
same,Decrease of affinity to CRFBP relative to unmodified rUcn,rCRFBP [1]; modification within the central part of the peptide,three orders of magnitude
"CC[C@H](C)[C@H](NC(=O)[C@H](CO)NC(=O)[C@H](CC(C)C)NC(=O)c1ccc(C(=O)c2ccccc2)cc1)C(=O)N[C@@H](CC(=O)O)C(=O)N[C@@H](CC(C)C)C(=O)N[C@H](C(=O)N[C@@H](Cc1ccccc1)C(=O)N[C@@H](Cc1c[nH]cn1)C(=O)N[C@@H](CC(C)C)C(=O)N[C@@H](CC(C)C)C(=O)N[C@@H](CCCNC(=N)N)C(=O)N[C@H](C(=O)N[C@@H](CC(C)C)C(=O)N[C@@H](CC(C)C)C(=O)N[C@@H](CCC(=O)O)C(=O)N[C@@H](CC(C)C)C(=O)N[C@@H](C)C(=O)N[C@@H](CCCNC(=N)N)C(=O)N[C@H](C(=O)N[C@@H](CCC(N)=O)C(=O)N[C@@H](CO)C(=O)N[C@@H](CCC(N)=O)C(=O)N[C@@H](CCCNC(=N)N)C(=O)N[C@@H](CCC(=O)O)C(=O)N[C@@H](CCCNC(=N)N)C(=O)N[C@@H](C)C(=O)N[C@@H](CCC(=O)O)C(=O)N[C@@H](CCC(N)=O)C(=O)O)[C@@H](C)O)[C@@H](C)O)[C@@H](C)O [Compound 8, pBB-rUcn^5-32] ({Benzoyl(4-benzoyl)}-LSIDLTFHLLRTLLELARTQSQRERAEQ-OH)",Ki,rCRFBP [1],37 ± 3.5 nM
"CC[C@H](C)[C@H](N)C(=O)N[C@@H](CO)C(=O)N[C@@H](CC(C)C)C(=O)N[C@@H](CC(=O)O)C(=O)N[C@@H](CC(C)C)C(=O)N[C@H](C(=O)N[C@@H](Cc1ccccc1)C(=O)N[C@@H](Cc1c[nH]cn1)C(=O)N[C@@H](CC(C)C)C(=O)N[C@@H](CC(C)C)C(=O)N[C@@H](CCCNC(=N)N)C(=O)N[C@@H](CCC(=O)O)C(=O)N[C@H](C(=O)N[C@@H](CC(C)C)C(=O)N[C@@H](CCC(=O)O)C(=O)N[C@@H](CCSC)C(=O)N[C@@H](C)C(=O)N[C@@H](CCCNC(=N)N)C(=O)N[C@@H](C)C(=O)N[C@@H](CCC(=O)O)C(=O)N[C@@H](CCC(N)=O)C(=O)N[C@@H](CC(C)C)C(=O)N[C@@H](C)C(=O)N[C@@H](CCC(N)=O)C(=O)N[C@@H](CCC(N)=O)C(=O)N[C@@H](C)C(=O)N[C@@H](Cc1ccc(C(=O)c2ccccc2)cc1)C(=O)N[C@@H](CO)C(=O)O)C(C)C)[C@@H](C)O [Compound 14, [pBPhe^32]h/rCRF^6-33] (H-ISLDLTFHLLREVLEMARAEQLAQQA[Bpa]S-OH; N-terminus assumed)",IC50,rCRFBP [3],2.1 nM
"H-ISLDLTFHLLREVLEMARAEQLAQQAHS-OH [Compound 9, h/rCRF^6-33, reference compound]",Suppression of photoadduct formation by competitor,rCRFBP [2]; [4],completely suppressed
"LSIDLTFHLLRTLLELARTQSQRERAEQ-OH [Compound 7, rUcn^5-32, reference compound]",Ki,rCRFBP [1],1.1 ± 0.06 nM
"ovine CRF [oCRF, reference compound]",Suppression of photoadduct formation by competitor,rCRFBP [2]; [5],not
same,Suppression of photoadduct formation by competitor,rCRFBP [2]; [4],not
pBB-h/rCRF [Compound 4],Photoadduct yield determined by immunoblotting,rCRFBP [2],50%
pBB-h/rCRF^6-33 [Compound 10],Photoadduct yield at different time points of irradiation,"rCRFBP [2]; immunodetection, densitometry (FIG. 12c)",≤ 65%
"rUcn [Compound 1, reference compound]",Suppression of photoadduct formation by competitor,rCRFBP [2]; [5],suppressed
